In ChEMBL document CHEMBL5244204, “Drug discovery approaches targeting 5-lipoxygenase-activating protein (FLAP) for inhibition of cellular leukotriene biosynthesis” (Eur J Med Chem, 2018) one finds IC50 and ED50 data, which are given here for 20 compounds.

What is called IC50 is the concentration that gives 50% inhibition. A word on the ED50: it is the midpoint of the dose-response relation.

Assay [1] deals with T1, Arachidonate 5-lipoxygenase-activating protein (Homo sapiens, UniProt P20292).
T1 sequence (P20292 whole entry): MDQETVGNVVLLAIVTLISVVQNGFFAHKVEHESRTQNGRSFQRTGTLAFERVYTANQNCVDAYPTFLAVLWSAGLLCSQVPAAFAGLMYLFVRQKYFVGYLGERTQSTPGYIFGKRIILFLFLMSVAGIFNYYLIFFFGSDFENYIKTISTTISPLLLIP
As to the kind of experiment: Inhibition of FLAP in human whole blood assessed as reduction in LTB4 level preincubated for 15 mins followed by calcium ionophore A23187 addition and measured after 30 min. Type of assay: tissue-based.

Assay [2] addresses T1, Arachidonate 5-lipoxygenase-activating protein. As to the kind of experiment: Inhibition of FLAP in human PMNL cells assessed as reduction in all-trans isomers of LTB4 and 5-HETE formation preincubated with enzyme for 15 mins followed by Ca2+ ionophore-A23187 and measured after 10 mins by HPLC analysis. The format is cell-based.
For assay [3] the target is unchanged. As to the kind of experiment: Inhibition of FLAP in human monocyte assessed as reduction in all-trans isomers of LTB4 and 5-HETE formation preincubated with enzyme for 15 mins followed by Ca2+ ionophore-A23187 and measured after 10 mins by HPLC analysis. Type of assay: cell-based.
Assay [4] deals with T2, Polyunsaturated fatty acid 5-lipoxygenase (Rattus norvegicus, UniProt P12527).
T2 sequence (P12527 whole entry): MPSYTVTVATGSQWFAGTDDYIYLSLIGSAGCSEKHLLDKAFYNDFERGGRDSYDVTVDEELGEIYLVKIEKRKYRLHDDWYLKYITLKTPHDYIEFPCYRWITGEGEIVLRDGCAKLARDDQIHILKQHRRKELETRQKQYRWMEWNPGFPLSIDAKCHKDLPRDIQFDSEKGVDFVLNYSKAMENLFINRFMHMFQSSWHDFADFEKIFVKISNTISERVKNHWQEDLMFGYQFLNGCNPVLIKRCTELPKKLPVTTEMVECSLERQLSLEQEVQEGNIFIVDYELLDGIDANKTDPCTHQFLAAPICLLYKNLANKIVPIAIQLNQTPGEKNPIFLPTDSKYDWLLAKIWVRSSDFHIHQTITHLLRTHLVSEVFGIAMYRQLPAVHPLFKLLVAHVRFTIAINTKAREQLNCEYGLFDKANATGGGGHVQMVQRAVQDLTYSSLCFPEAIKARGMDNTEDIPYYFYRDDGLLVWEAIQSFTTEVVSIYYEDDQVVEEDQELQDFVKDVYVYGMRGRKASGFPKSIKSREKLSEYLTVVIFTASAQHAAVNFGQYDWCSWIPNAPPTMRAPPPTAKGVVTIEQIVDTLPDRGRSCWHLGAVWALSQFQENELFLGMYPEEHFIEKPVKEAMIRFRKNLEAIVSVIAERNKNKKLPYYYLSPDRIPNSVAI
Nature of the assay: Inhibition of 5-LOX in […] rat PMNL cells assessed as reduction in 5-LO product level incubated for 3 mins by scintillation counting method. The format is cell-based.

Assay [5] has as its target T1, Arachidonate 5-lipoxygenase-activating protein. Nature of the assay: Inhibition of FLAP in human neutrophil assessed as reduction in all-trans isomers of LTB4 and 5-HETE formation using arachidonic acid as substrate preincubated with enzyme for 15 mins followed by substrate addition and A23187 measured after 10 mins by ELISA assay. Type of assay: cell-based. (In general: An ELISA detects its analyte on a solid surface through an enzyme-linked reagent.)

For assay [6] the target is unchanged. Nature of the assay: Inhibition of FLAP in human monocyte assessed as reduction in all-trans isomers of LTB4 and 5-HETE formation preincubated with enzyme for 15 mins followed by A23187 addition and measured after 10 mins by ELISA assay. Type of assay: cell-based.
The target is the same in assay [7]. As to the kind of experiment: Inhibition of FLAP in human whole blood assessed as reduction in all-trans isomers of LTB4 and 5-HETE formation preincubated with enzyme for 15 mins followed by fMLP addition and measured after 15 mins by HPLC analysis. The format is tissue-based.
A further assay concerns the target T3, Prostaglandin E synthase (Homo sapiens, UniProt O14684).
T3 sequence (O14684 whole entry): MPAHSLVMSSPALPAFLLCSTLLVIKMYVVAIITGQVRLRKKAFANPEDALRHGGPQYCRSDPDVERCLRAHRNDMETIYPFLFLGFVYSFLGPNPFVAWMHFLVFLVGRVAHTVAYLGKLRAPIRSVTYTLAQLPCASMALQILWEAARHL
As to the kind of experiment: Inhibition of mPGES-1 activity in IL-1beta human A549 microsome using PGH2 as substrate preincubated for 15 mins followed by substrate addition for 1 min by RP-HPLC analysis. Type of assay: microsomes.

Assay [8] is described as follows: Inhibition of Leukotriene biosynthesis in calcium ionophore A23187 stimulated human PMNL cells assessed as inhibition of LTB4 formation by cellular assay. The format is functional, cell-based.
For assay [9], the system named is Rattus norvegicus. Nature of the assay: Anti-inflammatory activity against anaphylaxis in peritoneal cavity of rat model assessed as reduction in LTB4 level at po dosed by ELISA. Type of assay: functional.
Assay [10] in a line: Inhibition of Leukotriene biosynthesis in human PMNL cells preincubated for 2 mins followed by calcium ionophore A23187 addition and measured after 5 mins by radioimmunoassay. The format is functional, cell-based.
Assay [11] addresses T4, Polyunsaturated fatty acid 5-lipoxygenase (Homo sapiens, UniProt P09917).
T4 sequence (P09917 whole entry): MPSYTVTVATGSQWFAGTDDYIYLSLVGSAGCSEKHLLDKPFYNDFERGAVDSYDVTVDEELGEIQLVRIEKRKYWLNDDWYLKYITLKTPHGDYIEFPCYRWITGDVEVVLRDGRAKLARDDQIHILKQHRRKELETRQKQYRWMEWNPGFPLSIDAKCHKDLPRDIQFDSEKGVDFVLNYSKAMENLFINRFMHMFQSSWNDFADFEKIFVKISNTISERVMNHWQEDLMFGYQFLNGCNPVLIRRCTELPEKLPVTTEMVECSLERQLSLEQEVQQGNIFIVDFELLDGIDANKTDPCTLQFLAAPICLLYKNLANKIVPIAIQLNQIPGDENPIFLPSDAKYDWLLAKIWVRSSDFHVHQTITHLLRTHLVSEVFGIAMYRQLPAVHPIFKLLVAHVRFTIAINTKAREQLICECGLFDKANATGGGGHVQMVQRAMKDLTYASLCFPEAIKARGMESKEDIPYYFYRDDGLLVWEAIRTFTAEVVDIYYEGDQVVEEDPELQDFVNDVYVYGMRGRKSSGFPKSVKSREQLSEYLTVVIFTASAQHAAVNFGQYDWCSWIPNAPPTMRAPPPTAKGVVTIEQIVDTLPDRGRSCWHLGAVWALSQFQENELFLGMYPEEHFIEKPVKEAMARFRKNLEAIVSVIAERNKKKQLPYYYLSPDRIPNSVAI
As to the kind of experiment: Inhibition of recombinant human 5-LO expressed in Escherichia coli JM109 using arachidonic acid as substrate incubated for 10 mins by HPLC analysis.

Assay [12] addresses T1, Arachidonate 5-lipoxygenase-activating protein. As to the kind of experiment: Inhibition of FLAP in human PMNL cells assessed as inhibition of 5-LO product LT formation preincubated for 15 mins followed by calcium ionophore A23187 addition and measured after 10 min by HPLC analysis. The format is cell-based.
Assay [13] shares this target. Nature of the assay: Inhibition of FLAP in human whole blood assessed as reduction of LTB4 formation preincubated with enzyme for 15 mins followed by calcimycin addition and measured after 30 mins by HTRF assay. Type of assay: tissue-based. On the technique in general: Time-resolved FRET reads energy transfer from a long-lived donor to a nearby acceptor.
Assay [14] has as its target T4, Polyunsaturated fatty acid 5-lipoxygenase. Nature of the assay: Inhibition of 5-LOX in human PMNL cells assessed as inhibition of LTB4 formation preincubated for 5 mins followed by calcium ionophore A23187 addition and measured after 6 min by HPLC analysis. The format is cell-based.
Assay [15] shares this target. As to the kind of experiment: Inhibition of 5-LOX in human whole blood assessed as inhibition of LTB4 formation preincubated for 10 mins followed by calcium ionophore A23187 addition and measured after 30 min by RIA/RP--HPLC analysis. Type of assay: tissue-based.
For the next assay, the species on record is Homo sapiens. As to the kind of experiment: Inhibition of Leukotriene biosynthesis in human whole blood assessed as inhibition of LTB4 formation. Type of assay: functional.
In assay [16] the test system is Rattus norvegicus. As to the kind of experiment: In vivo inhibition of Leukotriene biosynthesis in anaphylaxis rat model assessed as reduction in LTB4 level at po dosed. The format is functional.
The target of assay [17] is T1, Arachidonate 5-lipoxygenase-activating protein. Nature of the assay: Displacement of [125I]-L-691831 from recombinant human FLAP expressed in Sf9 insect cells incubated for 2 hr by scintillation proximity assay. Background: In a radioligand displacement assay an active substance lowers the binding of a labelled ligand.
The subject of assay [18] is Rattus norvegicus. As to the kind of experiment: In vivo inhibition of Leukotriene biosynthesis in pleural inflammation rat model assessed as reduction in LTB4 level at po dosed for 1 hr followed by calcium ionophore A-23187 administration and measured after 30 mins by enzyme immunoassay. Type of assay: functional. Conditions: time 1.5 hrs.
Assay [19] in a line: Inhibition of Leukotriene biosynthesis in calcium ionophore A-23187 stimulated human PMNL cells assessed as inhibition of LTB4 formation by enzyme immunoassay. The format is functional, cell-based.

Each structure is given as a SMILES string.

Take `CC(C)(C)c1ccc(-c2cnc(N)cn2)c(F)c1`: in [1], the IC50 was 0.6 µM.
Turning to `O=C(O)c1noc(-c2ccc(OCc3ccc4ccccc4n3)cc2)c1-c1ccc(Cl)cc1`, the IC50 in [2] and in assay [3] was 0.007 µM each time.
As to `O=C(O)CSC(CCCc1ccccc1)c1ccc(OCc2ccc3ccccc3n2)cc1` (stereo not drawn) [AZD-4769], the IC50 in [4] turned out to be 0.07 µM.
Turning to `CC(C)Cc1ccc(C(C)c2nc3ccccc3n2Cc2ccccc2Cl)cc1` (stereo not drawn), the IC50 in assay [5] was 0.15 µM; in assay [6], 0.04 µM; in [7], 4.8 µM; against Prostaglandin E synthase, 0.2 µM.
Turning to `CC(C)(CO/N=C/C(=O)O)Cc1c(SC(C)(C)C)c2cc(OCc3ccc4ccccc4n3)ccc2n1Cc1ccc(Cl)cc1`, the IC50 in [8] turned out to be 0.021 µM. Besides, in the assay with Rattus norvegicus [9], the ED50 is 0.9 mg/kg.
Consider `O=C(O)CSC(CCCc1ccc(Cl)cc1)c1ccc(OCc2ccc3ccccc3n2)cc1` (stereo not drawn), for which, in assay [4], the IC50 came to 0.02 µM.
On to `c1ccc(COCC(OCc2ccccc2)c2ccc(OCc3ccc4ccccc4n3)cc2)cc1` (stereo not drawn), for which, in assay [10], the IC50 came out at 0.03 µM.
Consider `CC1(C)Cc2c(-c3ccccc3)c(-c3ccc(Cl)cc3)c(CC(=O)O)n2C1` [LICOFELONE], for which the IC50 in assay [11] is > 10 µM; in assay [12], 1.7 µM.
On to `CC(C)(/C=N/OCC(=O)O)Cc1c(SC(C)(C)C)c2cc(OCc3ccc4ccccc4n3)ccc2n1Cc1ccc(Cl)cc1`, for which, in assay [8], the IC50 was 0.012 µM. In addition, the ED50 in the assay with Rattus norvegicus [9] was 0.24 mg/kg.
`CC(C)(C)n1c(-c2ccccc2C(=O)Nc2ccccn2)nc2cc(-c3cnc(N)nc3)ccc21`: in assay [13], the IC50 stood at 2.7 µM.
As for `Nc1cnc(-c2ccc(C3CCC3)c(Oc3ncccn3)c2F)cn1`, the IC50 in [1] is 0.066 µM.
Consider `O=C(O)[C@@H](c1ccc(OCc2ccc3ccccc3n2)cc1)C1CCCC1` [VELIFLAPON], for which the values for the IC50 (in [14]; in assay [15]; in the assay listed under Homo sapiens) were 0.22 µM, 11.6 µM and 6 µM, respectively. Also, the ED50 in the assay on Rattus norvegicus [16] came to 4 mg/kg.
On to `CNC(=O)c1ccc(C#N)cc1-c1nc2cc(-c3cnc(N)nc3)ccc2n1C(C)(C)C`, for which, in assay [13], the IC50 stood at 0.094 µM.
Turning to `Cc1ccn(-c2ccc(Cl)cc2-c2nc3cc(-c4cnc(N)nc4)ccc3n2C(C)(C)C)n1`, the IC50 in assay [17] was found to be 0.0007 µM.
`C/C(=N\O[C@H](c1ccc(OCc2ccc3ccccc3n2)cc1)C1CCCCC1)C(=O)[O-].[Na+]`: the IC50 in the assay listed under Homo sapiens was determined as 0.87 µM. Further, the ED50 in the assay with Rattus norvegicus [16] amounted to 0.4 mg/kg.
Consider `O=C(O)CSC(CCCc1ccccc1)(Cc1ccccc1)c1ccc(OCc2ccc3ccccc3n2)cc1` (stereo not drawn), for which, in [10], the IC50 is 0.004 µM.
As for `Nc1cnc(-c2ccc(-c3ccccc3S(N)(=O)=O)cc2F)cn1`, the 50% inhibitory concentration (IC50) in assay [1] is 0.39 µM.
In the case of `O=C(O)[C@@H](c1ccc(OCc2ccc3ccccc3n2)cc1)C1CCCCCC1`, the IC50 in assay [14] came to 0.042 µM; in [15], 1.1 µM.
Consider `CNC(=O)c1ccc(F)cc1-c1nc2cc(-c3cnc(N)nc3)ccc2n1C(C)(C)C`, for which the IC50 in assay [13] came to 0.13 µM.
Regarding `CC(CCC(=O)O)(c1ccc(OCc2ccc3ccccc3n2)cc1)c1ccc(OCc2ccc3ccccc3n2)cc1`, the ED50 in the assay with Rattus norvegicus [18] came to 1.5 mg/kg. The IC50 in [19] came to 0.023 µM.
